Target: T1, human TRPV1 (Homo sapiens, UniProt Q8NER1)
T1 construct: expressed in transfected cells
Assay type: cell-based
Experimental: Oocytes were held at −60 mV and data normalised to currents elicited by 10 μM capsaicin. (D) Reversibility of DkTx and Y35G evoked rat TRPV1 response at the indicated peptide concentrations using TEVC oocytes. Data points represent the fraction of currents remaining during the washout as a ratio to the maximal current evoked by each sample. (E) Washout shown as fractional current determined by whole‐cell patch clamp recordings from HEK293 cells expressing TRPV1 (voltage‐clamped at −80 mV). […] The time constant for decay was not fitted and calculated in panels D and E, as it could not be accurately determined for data sets with minimal washout over the experimental time course. All data are mean ± standard error of the mean (n=5–7).

T1 sequence (Q8NER1 whole entry): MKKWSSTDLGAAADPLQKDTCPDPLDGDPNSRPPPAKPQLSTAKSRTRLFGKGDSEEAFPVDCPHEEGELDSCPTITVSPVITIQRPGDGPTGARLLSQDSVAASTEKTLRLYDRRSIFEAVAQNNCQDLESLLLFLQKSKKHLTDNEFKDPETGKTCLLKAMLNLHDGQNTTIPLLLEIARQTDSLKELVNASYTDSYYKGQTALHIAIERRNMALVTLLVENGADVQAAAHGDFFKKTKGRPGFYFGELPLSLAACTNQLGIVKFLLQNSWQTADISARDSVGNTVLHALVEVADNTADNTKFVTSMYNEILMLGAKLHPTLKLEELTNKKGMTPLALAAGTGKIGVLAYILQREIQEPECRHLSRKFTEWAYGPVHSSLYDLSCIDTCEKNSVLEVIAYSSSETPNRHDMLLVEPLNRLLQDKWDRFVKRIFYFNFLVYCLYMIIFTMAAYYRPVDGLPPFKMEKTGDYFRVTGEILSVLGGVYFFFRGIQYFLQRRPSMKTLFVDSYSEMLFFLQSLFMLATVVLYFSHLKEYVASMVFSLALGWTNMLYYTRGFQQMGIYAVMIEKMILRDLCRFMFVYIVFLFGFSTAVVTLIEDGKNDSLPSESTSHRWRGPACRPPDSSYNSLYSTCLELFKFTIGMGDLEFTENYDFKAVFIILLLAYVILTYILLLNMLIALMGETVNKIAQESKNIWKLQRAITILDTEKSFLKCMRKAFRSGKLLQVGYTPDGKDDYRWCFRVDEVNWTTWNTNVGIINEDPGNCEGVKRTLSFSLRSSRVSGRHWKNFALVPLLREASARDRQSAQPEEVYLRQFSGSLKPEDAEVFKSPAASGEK

Compound	reversibility of TRPV1 current upon washing	inhibition of iDkTx-evoked currents (10 μM ruthenium red against 2 μM iDkTx, +80 mV, HEK293, Figure 1E–F)
COc1cc(CNC(=O)CCCC/C=C/C(C)C)ccc1O [capsaicin]	rapidly reversible upon washing	–
N.N.N.N.N.N.N.N.N.N.N.N.N.N.[Cl-].[Cl-].[Cl-].[Cl-].[Cl-].[Cl-].[O-2].[O-2].[Ru+3].[Ru+3].[Ru+4] [ruthenium red]	–	fully inhibited
